This note sets out measurements from patent US5889148A, “Antibiotic peptides” (priority 1995, dated 1999).

The subject of assay [1] is Candida albicans (ATCC 36232). Nature of the assay: MIC test, antifungal activity. Type of assay: cell-based. On the procedure: (§1) Antibacterial and antifungal activities of the peptides were determined by employing MIC test as follows:
(§2) To determine antifungal activity, a test organism Candida albicans (ATCC 36232) was cultured on Sabouraud dextrose agar plate for 24 to 48 hrs, and colonies thus grown were suspended on Sabouraud dextrose medium(Gibco, USA) to have O.D.530 =0.5(3×10^6 cells) and further diluted with 100-fold to have O.D.530 =0.005(3×10^4 cells). 100 μl of Candida albicans culture thus prepared was pipetted on 96-well microplates which had already contained 100 μl of a serially diluted peptide solution.

Assay [2] has as its system Staphylococcus aureus (ATCC 6538). Nature of the assay: MIC test, antibacterial activity. Type of assay: cell-based. On the procedure:
as §1, §2
Antibacterial activity of peptide was determined analogously as above, with an exception that Staphylococcus aureus (ATCC 6538) selected as a test organism was cultured on M-3 medium(Gibco, USA) at 37° C. and cell number was adjusted to 2×10^8 cells before 100-fold dilution.

[3] abbreviates: Table 3, addition of an amino acid to N-terminal of TED.
[4] abbreviates: Table 2, modification of N-terminal residues of TED.
Where [5] appears, read: Table 1, peptide fragments of Tenecin.
The mark [6] stands for this setting: Table 4, addition of an amino acid to N-terminal of TEDF.
Where [7] appears, read: Table 8, TEDFK derivatives of group 1.
The mark [8] stands for this setting: Table 7, comparison with Ketoconazole (Example 3).
The mark [9] stands for this setting: Table 6, substitution of Cys in TEDFK with Aib.
The mark [10] stands for this setting: Table 9, TEDFK derivatives of group 2.
The mark [11] stands for this setting: Table 10, TEDFK derivatives of group 3.
The mark [12] stands for this setting: Table 11, enantiomer, retro-inverso, D-amino acid derivatives of M22.

≈ marks a conversion by molar mass, not a printed value. Non-standard residues stand in square brackets, D forms with d. No end group written: not given here. Aib = CC(C)(N)C(=O)O

What is called MIC is the lowest concentration found to suppress growth. Turning to `CC(=O)N1CCN(c2ccc(OCC3COC(Cn4ccnc4)(c4ccc(Cl)cc4Cl)O3)cc2)CC1` (stereo not drawn) [Ketoconazole, reference compound], the MIC in assay [1] (Candida albicans, ATCC36232, Table 7, comparison with Ketoconazole (Example 3), read-out: MIC against C. albicans) worked out at 6 µg/mL (≈ 11.3 µM).
For “AYCNGKRVCVCR--NH2 (AYCNGKRVCVCR-NH2; cysteine pairing not given here) [TEDA]”, the “MIC C. albicans” value in assay [1] (setting [3]) was found to be 10 µg/mL. Besides, in assay [2] (setting [3]), the “MIC S. aureus” value was found to be 10 µg/mL.
Consider “CNGKRVCVCR--NH2 (CNGKRVCVCR-NH2; cysteine pairing not given here) [TED15]”, for which the “MIC against C. albicans” value in assay [1] (setting [4]) was above 500 µg/mL.
On to “DAACAAHHCLFR--NH2 (DAACAAHHCLFR-NH2; cysteine pairing not given here) [TEA]”, for which the “MIC C. albicans” value in assay [1] (setting [5]) is above 100 µg/mL. In addition, the “MIC S. aureus” value in assay [2] (setting [5]) was above 500 µg/mL.
With “DFYCNGKRVCVCR--NH2 (DFYCNGKRVCVCR-NH2; cysteine pairing not given here) [TEDFD]”, the “MIC C. albicans” value in assay [1] (setting [6]) was above 500 µg/mL. Further, the “MIC S. aureus” value in assay [2] (setting [6]) was above 500 µg/mL.
With “DYCNGKRVCVCR--NH2 (DYCNGKRVCVCR-NH2; cysteine pairing not given here) [TEDD]”, in assay [1] (setting [3]), the “MIC C. albicans” value was 50 µg/mL. Further, in assay [2] (setting [3]), the “MIC S. aureus” value came out at 10 µg/mL.
“FFYCNGKRVCVCR--NH2 (FFYCNGKRVCVCR-NH2; cysteine pairing not given here) [TEDFF]”: in assay [1] (setting [6]), the “MIC C. albicans” value was found to be 3 µg/mL. The “MIC S. aureus” value in assay [2] (setting [6]) came out at 5 µg/mL.
As to “FKYCNGKRVCVCR--NH2 (FKYCNGKRVCVCR-NH2; cysteine pairing not given here) [M3]”, in assay [1] (setting [7]), the “MIC C. albicans” value turned out to be 12.5 µg/mL. For the same molecule, the “MIC S. aureus” value in assay [2] (setting [7]) turned out to be 12.7 µg/mL.
Take “FPYCNGKRVCVCR--NH2 (FPYCNGKRVCVCR-NH2; cysteine pairing not given here) [TEDFP]”: in assay [1] (setting [6]), the “MIC C. albicans” value is above 500 µg/mL. In addition, the “MIC S. aureus” value in assay [2] (setting [6]) is above 500 µg/mL.
As for “FYCNGKRVCVCR--NH2 (FYCNGKRVCVCR-NH2; cysteine pairing not given here) [TEDF]”, the “MIC C. albicans” value in assay [1] (setting [3]) and in assay [1] (setting [6]) was 10 µg/mL throughout. The “MIC S. aureus” value in assay [2] (setting [3]) and in assay [2] (setting [6]) was 5 µg/mL each time.
On to “GKRVCVCR--NH2 (GKRVCVCR-NH2; cysteine pairing not given here) [TED11]”, for which the “MIC against C. albicans” value in assay [1] (setting [4]) was above 500 µg/mL.
On the same count and under the same terms, then “KCNGKRVCVCR--NH2 (KCNGKRVCVCR-NH2; cysteine pairing not given here) [TED18]”, with above 500 µg/mL.
As for “KFYCDGKRVCVCR--NH2 (KFYCDGKRVCVCR-NH2; cysteine pairing not given here) [M18]”, the “MIC C. albicans” value in assay [1] (setting [7]) was determined as 12.5 µg/mL. Also, in assay [2] (setting [7]), the “MIC S. aureus” value is 12.7 µg/mL.
Turning to “KFYCKGKRVCVCR--NH2 (KFYCKGKRVCVCR-NH2; cysteine pairing not given here) [TEDFK-7]”, the “MIC against C. albicans” value in assay [1] (Table 5, modification of TEDFK) worked out at 3 µg/mL; in assay [1] (setting [8]), 3 µg/mL.
Take “KFYCNGKRICICR--NH2 (KFYCNGKRICICR-NH2; cysteine pairing not given here) [M13]”: the “MIC C. albicans” value in assay [1] (setting [7]) was 6.25 µg/mL. In addition, the “MIC S. aureus” value in assay [2] (setting [7]) was found to be 6.35 µg/mL.
On to “KFYCNGKRVCVCD--NH2 (KFYCNGKRVCVCD-NH2; cysteine pairing not given here) [TEDFK-11]”, for which the “MIC against C. albicans” value in assay [1] (Table 5, modification of TEDFK) stood at 5 µg/mL; in assay [1] (setting [8]), 6 µg/mL.
In the same order, the values of “KFYCNGKRVCVCL--NH2 (KFYCNGKRVCVCL-NH2; cysteine pairing not given here) [TEDFK-10]” are 5 µg/mL and 6 µg/mL.
“KFYCNGKRVCVCR--NH2 [TEDFK-8] (KFYCNGKRVCVCR-NH2; cysteine pairing not given here)”: the “MIC against C. albicans” value stood at 5 µg/mL in assay [1] (Table 5, modification of TEDFK) and 6 µg/mL in assay [1] (setting [8]).
With “KFYCNGKRVCVCR--NH2 [TEDFK] (KFYCNGKRVCVCR-NH2; cysteine pairing not given here)”, the “MIC C. albicans” value is 3 µg/mL in assay [1] (setting [6]), 6.25 µg/mL in assay [1] (setting [7]), 6.25 µg/mL in assay [1] (setting [10]) and 6.25 µg/mL in assay [1] (setting [12]). Besides, the “MIC against C. albicans” value in assay [1] (Table 5, modification of TEDFK) came to 3 µg/mL; in assay [1] (setting [9]), 3 µg/mL; in assay [1] (setting [11]), 6.25 µg/mL. For the same molecule, the “MIC S. aureus” value was determined as 5 µg/mL in assay [2] (setting [6]), 6.25 µg/mL in assay [2] (setting [7]), 6.25 µg/mL in assay [2] (setting [10]) and 6.25 µg/mL in assay [2] (setting [12]).
For the molecule “KFYCNGKRVCVCW--NH2 (KFYCNGKRVCVCW-NH2; cysteine pairing not given here) [M31]”, the “MIC C. albicans” value in assay [1] (setting [7]) was found to be 12.5 µg/mL. For the same molecule, in assay [2] (setting [7]), the “MIC S. aureus” value worked out at 12.7 µg/mL.
For the molecule “KFYCNGKRVCV[Aib]R-NH2 (cysteine pairing not given here) [TEDFK-3A]”, the “MIC against C. albicans” value in assay [1] (setting [9]) was found to be 20 µg/mL; in assay [1] (setting [8]), 12 µg/mL.
On to “KFYCNGKRV[Aib]VCK-NH2 (cysteine pairing not given here) [M25]”, for which the “MIC C. albicans” value in assay [1] (setting [7]) came to 6.25 µg/mL. The “MIC S. aureus” value in assay [2] (setting [7]) is 6.35 µg/mL.
Consider “KFYCNGKRV[Aib]VCR-NH2 (cysteine pairing not given here) [TEDFK-2A]”, for which the “MIC against C. albicans” value in assay [1] (setting [9]) was determined as 5 µg/mL; in assay [1] (setting [8]), 6 µg/mL.
Consider “KFYCNGRVCVCR--NH2 (KFYCNGRVCVCR-NH2; cysteine pairing not given here) [TEDFK-2]”, for which the “MIC against C. albicans” value was determined as 5 µg/mL in assay [1] (Table 5, modification of TEDFK) and 6 µg/mL in assay [1] (setting [8]).
In the same order, the values of “KFYCNKKRVCVCR--NH2 (KFYCNKKRVCVCR-NH2; cysteine pairing not given here) [TEDFK-5]” are 5 µg/mL and 3 µg/mL.
For the molecule “KFYCNKRVCVCR--NH2 (KFYCNKRVCVCR-NH2; cysteine pairing not given here) [TEDFK-1]”, the “MIC against C. albicans” value in assay [1] (Table 5, modification of TEDFK) is 5 µg/mL.
On the same count and under the same terms, then “KFYCNLKRVCVCR--NH2 (KFYCNLKRVCVCR-NH2; cysteine pairing not given here) [TEDFK-4]”, with 5 µg/mL.
On to “KFYCNPGPVCVCR--NH2 (KFYCNPGPVCVCR-NH2; cysteine pairing not given here) [TEDFK-9]”, for which the “MIC against C. albicans” value in assay [1] (Table 5, modification of TEDFK) was 20 µg/mL; in assay [1] (setting [8]), 12 µg/mL.
In the case of “KFYCNPKRVCVCR--NH2 (KFYCNPKRVCVCR-NH2; cysteine pairing not given here) [TEDFK-3]”, the “MIC against C. albicans” value in assay [1] (Table 5, modification of TEDFK) came to 5 µg/mL; in assay [1] (setting [8]) it was 6 µg/mL.
In the same order, the values of “KFYCVGKRVCVCR--NH2 (KFYCVGKRVCVCR-NH2; cysteine pairing not given here) [TEDFK-6]” are 5 µg/mL and 6 µg/mL.
Regarding “KFY[Aib]NGKRVCVCR-NH2 (cysteine pairing not given here) [TEDFK-1A]”, the “MIC against C. albicans” value in assay [1] (setting [8]) worked out at 2 µg/mL.
For the molecule “KGKRVCVCR--NH2 (KGKRVCVCR-NH2; cysteine pairing not given here) [TED12]”, in assay [1] (setting [4]), the “MIC against C. albicans” value was above 500 µg/mL.
KKYIVFVFK--NH2 (KKYIVFVFK-NH2) [M33]: in assay [1] (setting [11]), the “MIC against C. albicans” value amounted to 3.12 µg/mL.
For “LCNGKRVCVCR--NH2 (LCNGKRVCVCR-NH2; cysteine pairing not given here) [TED17]”, the “MIC against C. albicans” value in assay [1] (setting [4]) was 100 µg/mL.
